In patent US10195222B2, “Acyclic nucleoside phosphonate diesters” (The Regents of the University of California, priority 2013, dated 2019) one finds EC50, CC50 and Selectivity index data, which are given here for six compounds.

Like-named read-outs stand apart in the source and are kept apart here.

The subject of data set [1] is HSV-2. Put plainly: HSV-2 plaque reduction assay in HFF cells. It is filed as cell-based. The following applies: for EC50: plaque reduction, 3 days, read-out: EC50 (HSV-2 antiviral activity in HFF cells); for Selectivity index: HSV-2 in HFF cells. How it is done: Antiviral assay. […] Plates were allowed to incubate for 37° C. for 1 hour. […] Plates were incubated at 37° C. for 3 days and monolayers were stained with crystal violet. Plaques were counted and results are expressed as μM concentration of drug which reduced plaques by 50% versus control plates without drug. (Richards et al, Antiviral Res. 2:27, 1982)
A general note: Plaques are areas of infected cells; plaque reduction assays count them against a control.

Data set [2] concerns HFF cells. Kind of data set: Cytotoxicity in HFF cells (HSV-2 table). The following applies: read-out: CC50 (HFF cells); Table 10.
The nature of data set [3]: Cell proliferation assay (neutral red), normal human fibroblasts. It is filed as cell-based. Particulars: read-out: Cytotoxicity, CC50, Normal cells Human fibroblasts. How it is done:
(§1) Method Cell Proliferation Assays: The various human fibroblast and human cervical cancer cell lines were plated at 5×10^3 per well in 96 well plates using media with 10% fetal bovine serum added and incubated for about 24 hr. Ten mM stock solutions of the compounds were prepared in 10% DMSO in distilled water. Serial drug dilutions were made in media containing 2% FBS to give a final […] concentration, added to the wells, and incubated at 37° C. for 5 days. Cytotoxicity was measured by neutral red reduction, as known in the art.

The test system of data set [4] is Me180 (68) cervical cancer cells. Put plainly: Cell proliferation assay (neutral red), Me180 cervical cancer cells. Particulars: Homo sapiens, ME-180, 120 h, read-out: Cytotoxicity, CC50, Cervical Cancer Cells Me180 (68). It is filed as cell-based. The method, then: as §1
In data set [5] the test system is HeLa (18) cervical cancer cells. Put plainly: Cell proliferation assay (neutral red), HeLa cervical cancer cells. It is filed as cell-based. Particulars: Homo sapiens, 120 h, read-out: Cytotoxicity, CC50, Cervical Cancer Cells HeLa (18). How it is done:
as §1

The subject of data set [6] is Caski (16) cervical cancer cells. Put plainly: Cell proliferation assay (neutral red), Caski cervical cancer cells. It is filed as cell-based. The following applies: Homo sapiens, Ca-Ski, 120 h, read-out: Cytotoxicity, CC50, Cervical Cancer Cells Caski (16). How it is done:
as §1

Data set [7] deals with HPV-11. Kind of data set: HPV-11 antiviral assay, DNA PCR in HEK 293 cells. It is filed as cell-based. Particulars: for Selectivity index: HPV-11 in HEK 293 cells. The text has this:
(§2) Assay. DNA PCR in HEK 293 cells infected with HPV-11, EC50, effective concentration 50%; CC50, 50% reduction of cell proliferation. DNA PCR by the methods reported by Chiang et al, Proc Natl Acad Sci USA. 1992. 89(13):5799-803 and Taylor and Morgan, Virology. 2003. 10; 315(1):103-9.

Data set [8] is described as follows: Cytotoxicity (reduction of cell proliferation) in HEK 293 cells. It is filed as cell-based. The following applies: human, read-out: CC50 (50% reduction of cell proliferation).
Excerpt: as §2

A short description of data set [9]: Cytotoxicity in HFF cells (HSV-2 table). The following applies: human, HFF cells.
Data set [10] has as its system HIV-1LAI. Put plainly: HIV antiviral assay, p24 reduction in MT-2 cells. Particulars: for Selectivity index: CC50/EC50, HIV-1 in MT-2 cells.
The test system of data set [11] is MT-2 cells (human T cell leukemia). Kind of data set: Cytotoxicity in MT-2 cells (flow cytometry, propidium iodide). It is filed as cell-based. The following applies: 72 hrs. The method, then:
Method of cytotoxicity determination. MT-2 cells were incubated with drug for 72 hrs and harvested. Flow count beads (Beckman Coulter, Miami, Fla.) were added to the cell suspension followed by propidium iodide staining and analysis using flow cytometer and the 50% cytotoxic concentration (CC50) was calculated from the cell counts and viability.
Method cytotoxicity determination. MT-2 cells were incubated with drug for 72 hrs and harvested. Flow count beads (Beckman Coulter, Miami, Fla.) were added to the cell suspension followed by propidium iodide staining and analysis using flow cytometer and the 50% cytotoxic concentration (CC50) was calculated from the cell counts and viability.
Background: Flow cytometry measures light scatter and fluorescence of single cells or particles in a stream.

Setting [12] is: Human alphaherpesvirus 2, HFF, 72 h.

In general, EC50 refers to the concentration giving half of the maximal effect. Regarding `CCCCCCCCCCCCCCCCCCOCCOP(=O)(COCCn1cnc2c(=O)[nH]c(N)nc21)OCc1ccccc1` (centres unmarked) [Bn-ODE-PMEG fast, benzyl octadecyloxyethyl 9-(2-phosphonomethoxyethyl)guanine], the half-maximal effective concentration (EC50) in data set [1] was less than 100 nM. Also, the CC50 in [2] was more than 4000 nM.
As to `CCCCCCCCCCCCCCCCCCOCCOP(=O)(COCCn1cnc2c(=O)[nH]c(N)nc21)OCc1ccccc1` (racemic) [Bn-ODE-PMEG, benzyl octadecyloxyethyl 9-[2-(phosphonomethoxy)ethyl]guanine], the CC50 at 5 days in [3] was found to be 15000 ± 1500 nM. The CC50 is 31 ± 20 nM in [4], 310 ± 110 nM in data set [5], 15 ± 7 nM in [6] and more than 100000 nM in data set [8]. Moreover, the concentration for a half-maximal effect (EC50) in data set [7] (HEK293, DNA PCR in HEK 293 cells infected with HPV-11) was 660 nM; in data set [1] (setting [12]) it was less than 1000 nM. Also, the Selectivity index in data set [7] is more than 151; in data set [1] it was more than 10.
`CCCCCCCCCCCCCCCCCCOCCOP(=O)(COCCn1cnc2c(N)ncnc21)OCc1ccccc1` (centres unmarked) [Bn-ODE-PMEA, benzyl octadecyloxyethyl 9-[2-(phosphonomethoxy)ethyl]adenine]: the CC50 in data set [8] was more than 100000 nM.
`CCCCCCCCCCCCCCCCCCOCCOP(=O)(CO[C@H](CO)Cn1cnc2c(N)ncnc21)OCc1ccccc1` (stereo partly drawn) [Bn-ODE-(S)-HPMPA, benzyl octadecyloxyethyl 9-(S)-[3-hydroxy-2-(phosphonomethoxy)propyl]adenine]: the CC50 at 5 days in data set [3] (normal human fibroblasts (HFF)) came out at 5200 ± 3900 nM. Moreover, the CC50 in [4] (5 days, neutral red) turned out to be 210 ± 70 nM; in [9], 5200 nM. Besides, the Selectivity index in data set [7] is reported as more than 370; in data set [1] it was more than 52; in [10], 17.7. In [1] (setting [12]), the concentration for a half-maximal effect (EC50) is less than 100 nM.
As for `CCCCCCCCCCCCCCCCCCOCCOP(=O)(CO[C@H](CO)Cn1ccc(N)nc1=O)OCc1ccccc1` (stereo partly drawn) [Bn-ODE-(S)-HPMPC, benzyl octadecyloxyethyl 1-(S)-[(3-hydroxy-2-phosphonomethoxy)propyl]cytosine], the figures for the Selectivity index in data set [1] and in data set [10] were more than 48 and 6.7, respectively. Also, the 50% effective concentration (EC50) in [1] (setting [12]) is less than 100 nM. Further, in data set [9], the CC50 came out at 4800 nM.
`CCCCCCCCCCCCCCCCCCOCCOP(=O)(COCCn1cnc2c(=O)[nH]c(N)nc21)OCc1ccccc1` (centres unmarked) [Bn-ODE-PMEG slow, benzyl octadecyloxyethyl 9-(2-phosphonomethoxyethyl)guanine]: the CC50 in data set [11] (Table 7, read-out: CC50, 50% Cytotoxic concentration, MT2 cells T cell leukemia) is less than 10 nM; in data set [11] (Table 8, read-out: CC50 (MT-2 cells)) it was less than 10 nM. For the same compound, in data set [10] (read-out: EC50 (HIV antiviral activity in MT-2 cells), p24 reduction, four days after infection), the half-maximal effective concentration (EC50) was less than 0.01 nM.
